Earlier results, collected in patent publication US6420552B1, “Syntheses of 4-alkyl chromogenic glycosides and 7-alkyl chromogenic glycosides of N-acetylneuraminic acids” (priority 1999, dated 2002).

Assays:
[1] = tested on: neuraminidase activity of parainfluenza types 1 and 2; settings: substrate activity, result in words
[2] = tested on: neuraminidase activity of influenza types A and B; settings: substrate activity, result in words
[3] = tested on: respiratory syncytial adenovirus; settings: substrate activity, result in words
[4] = molecular target: neuraminidase from Vibrio cholerae (Vibrio cholerae serotype O1, UniProt P0C6E9); settings: 4-methylumbelliferyl α ketosides
Chain of neuraminidase from Vibrio cholerae (P0C6E9 25-781): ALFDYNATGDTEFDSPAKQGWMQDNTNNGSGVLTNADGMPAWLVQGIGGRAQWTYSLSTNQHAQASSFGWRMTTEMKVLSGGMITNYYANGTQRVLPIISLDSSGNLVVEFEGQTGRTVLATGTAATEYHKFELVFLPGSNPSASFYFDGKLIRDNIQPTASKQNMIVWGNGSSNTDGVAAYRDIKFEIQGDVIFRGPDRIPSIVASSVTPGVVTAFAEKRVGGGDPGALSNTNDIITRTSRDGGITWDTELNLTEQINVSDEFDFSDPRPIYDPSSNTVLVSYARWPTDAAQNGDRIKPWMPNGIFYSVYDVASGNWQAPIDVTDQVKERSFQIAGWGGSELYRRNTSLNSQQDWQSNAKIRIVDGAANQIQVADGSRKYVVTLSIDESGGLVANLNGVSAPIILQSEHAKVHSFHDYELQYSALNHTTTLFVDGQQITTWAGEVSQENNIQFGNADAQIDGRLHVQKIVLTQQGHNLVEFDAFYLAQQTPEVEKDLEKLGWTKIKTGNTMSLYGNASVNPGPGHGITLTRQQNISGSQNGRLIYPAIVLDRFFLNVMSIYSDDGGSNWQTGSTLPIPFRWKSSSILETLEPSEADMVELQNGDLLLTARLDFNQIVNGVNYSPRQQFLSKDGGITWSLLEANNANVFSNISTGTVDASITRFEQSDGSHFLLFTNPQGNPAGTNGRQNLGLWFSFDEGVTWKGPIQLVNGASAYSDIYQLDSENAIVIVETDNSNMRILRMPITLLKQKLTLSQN

| Compound | hydrolysis / colour development by neuraminidase activity of parainfluenza types 1 and 2 [1] | hydrolysis / colour development by neuraminidase activity of influenza types A and B [2] | hydrolysis by respiratory syncytial adenovirus [3] | glycosidic hydrolysis by neuraminidase from Vibrio cholerae [4] |
| --- | --- | --- | --- | --- |
| 5-bromo-3-indolyl 4-O-methyl Neu5Ac ketoside | acted upon | acted upon | not at all | – |
| CC(=O)N[C@H]1[C@H]([C@@H](O)[C@@H](O)CO)OC(O)(C(=O)O)C[C@@H]1O (stereo partly drawn) [7,8-(bis)epi Neu5Ac] | – | – | – | significantly slowed |
| CC(=O)N[C@H]1[C@H](C[C@H](O)CO)OC(O)(C(=O)O)C[C@@H]1O (stereo partly shown) [7-deoxy Neu5Ac] | – | – | – | significantly slowed |
| CC(=O)N[C@@H]1CCC(O)(C(=O)O)O[C@H]1C[C@H](O)CO (stereo partly shown) [4,7-dideoxy Neu5Ac] | – | – | – | significantly slowed |
| COC1CC(Oc2c[nH]c3ccc(Br)cc23)(C(=O)O)OC(C(OC)C(O)CO)C1NC(C)=O (stereo not shown) [5-bromo-3-indolyl 4,7-di-O-methyl Neu5Ac ketoside] | – | selectively hydrolyzed | – | – |
